Measurements: US20130287688A1, “NOVEL COMPOSITIONS AND USES OF ANTI-HYPERTENSION AGENTS FOR CANCER THERAPY” (XTUIT PHARMACEUTICALS, INC., priority 2010, published 2013)

Tests used:
[1] = test system: FVB MMTV PyVT spontaneous mammary carcinoma; assay: Collagen I immunostaining of tumor sections; type: in vivo, mice; settings: 20 mg/kg/day, two weeks (FIG. 5B)
Experimental: Human soft tissue sarcoma (HSTS26T) and human melanoma (Mu89) tumors were grown subcutaneously in the legs and dorsal skin fold chamber of severe combined immunodeficient (SCID) mice (Leunig M, et al. (1992) Cancer Res 52:6553-6560). Human pancreatic adenocarcinoma cells (L3.6PL) were grown orthotopically in the pancreas of SCID mice. L3.6PL tumors were induced with a sub-capsular injection of one million cells in the tail of the pancreas. Tumor sizes were monitored in spontaneous FVB/N-Tg (MMTV-PyVT) 634MU1/J mice and tumors selected for treatment when they reached a size of 4 to 6 mm in diameter (Guy C T et al. (1992) Mol Cell Biol 12:954-961).
Cozaar (losartan potassium) tablets were ground using a mortar and pestle. The powder was then dissolved in water to obtain a concentration of 2.5 mg/ml. […]
Frozen sections were cut into 10 μm sections for immunohistochemistry and imaging. Collagen I was detected using the LF-67 antibody (1:100 dilution) with a previously described protocol (Znati C A, et al. (2003) Clin Cancer Res 9:5508-5513). TSP-1 was detected with a goat anti-human antibody (1:50 dilution), which cross-reacts with mice (sc-12312, Santa Cruz Biotechnology Inc., Santa Cruz, Calif.). […] The collagen and TSP-1 content was determined by measuring the number of pixels above a threshold value that was set based on the average intensity value of pixels from all slides under analysis. […]

[2] = test system: HSTS26T tumors; assay: Protein levels in homogenized tumors (ELISA); type: in vivo, mice
From the text: Tumors were excised after two weeks of treatment, homogenized and analyzed for total and activated TGF-β1 levels by ELISA.

[3] = test system: AK4.4 tumors; assay: Solid stress (tumor opening technique); parameters: species or system mice; settings: mouse, in vivo
[4] = test system: E0771 tumors; assay: Tissue oxygenation by phosphorescence quenching microscopy; type: in vivo, mice; settings: versus control tumors that become more hypoxic with time
Experimental: An oxygen-sensitive porphyrin, Oxyphor R2 (Oxygen Enterprises) was injected retro-orbitally 12 hrs prior to imaging, and was reinjected immediately prior to imaging along with 2MDa FITC-dextran (Sigma-Aldrich) for functional vascular tracing. A mosaic image of the tumor was collected, and oxygen was then measured in an evenly spaced 12×12 grid at four depths (60, 120, 180, and 240 μm) in the tumor. At each point in the grid, the phosphorescence lifetime of the probe was measured after each of several repeated brief intense pulses of 1020 nm laser light, and these lifetime measurements were combined. A two-component model was used to calculate the oxygen tension from each lifetime measurement, accounting for binding and quenching of the probe by both oxygen and proteins. The grid was then overlayed on the mosaic images to make an oxygen map.

[5] = test system: E0771 tumors; assay: Nanoparticle penetration (effective permeability) by intravital multiphoton microscopy; type: in vivo, mice
Experimental: Penetration rates are quantified as effective permeability, which is the transvascular mass flux per unit vascular surface area and transvascular concentration difference.
Images were taken at ˜60 mW at sample surface. Mosaic images were taken in raster pattern using a motorized stage (H101, Prior Scientific) and customized automation software (LabView, National Instruments). Imaging studies were performed with a 20× magnification, 0.95NA water immersion objective (Olympus XLUMPlanFl, 1-UB965, Optical Analysis).
Concentrations were adjusted with in vitro calibration to result in roughly equal photoluminescence intensity for all three nanoparticle samples under 800 nm multiphoton excitation. […] Images were taken every 3 min at each region of interest for a duration of 1 hr. […] The analysis approach involved 3D vessel tracing to create vessel metrics and a 3D map of voxel intensity versus distance to the nearest vessel over time. Images were also corrected for sample movement over time with 3D image registration. The effective permeability was calculated with
Fluorescence intensities were used as these concentrations. The calculation was made as an average over the entire imaged volume for each tumor.

[6] = test system: E0771 breast tumors; assay: Interstitial hydraulic conductivity of excised tumor tissue; type: in vivo, mice; settings: 40 mg/kg i.p. daily, 6 days
Experimental: FIG. 31 is a bar graph showing that angiotensin inhibitors increase fluid flow in tumors. Interstitial hydraulic conductivity was measured by the flow rate of media through freshly excised tumor tissue. […] Animal number n=6.
Oxygenation was then studied using phosphorescence quenching microscopy. […] This decrease in tumor hypoxia was confirmed by using pimonidazole staining (FIGS. 29D and 30). To determine if losartan also increases nanomedicine delivery, which is dependent on both vascular supply and penetration across vessel walls into tumor tissue, nanoparticle penetration was measured using intravital multiphoton microscopy. Nanoparticle penetration rates were quantified as transvascular mass flux per unit vascular surface area and transvascular concentration difference, termed as the effective permeability. […] Penetration rates are largely dependent on fluid flow through the viscoelastic and tortuous tumor interstitium, which is a function of interstitial hydraulic conductivity. It was determined that losartan also increases the hydraulic conductivity of E0771 tumors (FIG. 31), likely through its anti-matrix effects, and a mathematical model (Chauhan V P, et al., Nature Nanotechnology. 2012; advance online publication) was used to confirm that this can improve the penetration rate of all sizes of nanomedicines (FIG. 32). […]

[7] = 15 mg/kg/day in drinking water, two weeks

With CCCCc1nc(Cl)c(CO)n1Cc1ccc(-c2ccccc2-c2nn[nH]n2)cc1 [losartan] the “reduction in collagen I immunostaining” value [1] was 47%, the “reduction in TSP-1” value [2, 7] was 3.5 fold and the “reduction in active TGF-β1” value [2, 7] was 4 fold. The “reduction in collagen 1” value [2, 7] was “two fold reduction”, the “total TGF-β1 levels” value ([2]; homogenized tumors) was “did not affect” and the solid stress [3] was “reduces solid stress”. For the same molecule, the tissue oxygenation [4] was “maintains the level of oxygenation”, the effective permeability ([5]; 12 nm nanoparticles) was “improved” and the effective permeability ([5]; 60 nm nanoparticles) was “improved”. For the same molecule, the effective permeability ([5]; 125 nm nanoparticles) was “improved” and the interstitial hydraulic conductivity [6] was “large increase”.
